Test results: patent US6892140B1, “Immunogenic cancer peptides and uses thereof” (Enteron, Inc., priority 2000, dated 2005)
Ends that are not written are not given here.

system: antibodies in sera from prostate cancer patients; assay: Prostate cancer serum test of cell surface protein peptides (Table 3); type: binding, human; set-up: key: +: positive or negative reactivity between peptides representing modified peptide regions of cancer cell surface protein molecules with antibodies in sera from prostate cancer patients; −: positive or negative reactivity between peptides representing modified peptide regions of cancer cell surface protein molecules with antibodies in sera from prostate cancer patients; details: reactivity of peptide with antibodies in sera from prostate cancer patients
From the text: Table 3 third column illustrates the positive or negative reactivity between peptides representing modified peptide regions of cancer cell surface protein molecules with antibodies in sera from prostate cancer patients. The presence or absence in prostate cancer cells of the 41 tested molecules is shown as + or − in column four.
Sixth, employing the immunoassays disclosed herein, each biotinylated peptide is screened as an antigen against sera or other relevant biological fluids containing antibodies taken from one of the following groups: cancer patients, patients with benign lesions or inflammatory conditions, and healthy subjects. Peptides can also be screened using tumor-infiltrating lymphocytes or peripheral blood-born lymphocytes from cancer patients. Candidate peptides we consider cancer-specific or cancer-associated depend on whether they fit the following definitions.

| Substance | Prostate Cancer Serum Test Result |
| --- | --- |
| leNht: Tested peptide of cell surface protein integrin alpha 3 (LENHT; also: biotin label at one end) | − |
| seNdt: Tested peptide of cell surface protein protein-tyrosine phosphatase PCP-2 (SENDT; not fully specified) | − |
| knNht: Tested peptide of cell surface protein CD63 (KNNHT; also: biotin label at one end) | − |
| deNit: Tested peptide of cell surface protein tgfr beta type II (DENIT; not fully specified) | + |
| vgNks: Tested peptide of cell surface protein hepatocyte gfr (VGNKS; not fully specified) | − |
| rmNit: Tested peptide of cell surface protein integrin alpha 3 (RMNIT; not fully specified) | − |
| eyNts: Tested peptide of cell surface protein tgfr beta type II (EYNTS; not fully specified) | + |
| dkNls: Tested peptide of cell surface protein N-Cadherin (DKNLS; not fully specified) | + |
| eeNns: Tested peptide of cell surface protein pdgfr alpha (EENNS; not fully specified) | − |
| pgNrt: Tested peptide of cell surface protein CD82 (PGNRT; also: biotin label at one end, end not given here) | − |
| drNgt: Tested peptide of cell surface protein CD44 (DRNGT; not fully specified) | + |
| seNas: Tested peptide of cell surface protein integrin alpha 1 (SENAS; not fully specified) | − |
| kaNts: Tested peptide of cell surface protein integrin alpha 5 (KANTS; also: biotin label at one end) | − |
| aeNct: Tested peptide of cell surface protein erbB-4 (AENCT; not fully specified) | − |
| pdNdt: Tested peptide of cell surface protein insulin-like gf receptor (PDNDT; also: biotin label at one end) | − |
| crNvs: Tested peptide of cell surface protein erbB-1 (CRNVS; not fully specified) | − |
| kdNrt: Tested peptide of cell surface protein pdgfr beta (KDNRT; also: biotin label at one end) | − |
| trNvs: Tested peptide of cell surface protein pdgfr beta (TRNVS; not fully specified) | − |
| spNhs: Tested peptide of cell surface protein CD44 (SPNHS; not fully specified) | − |
| kaNtt: Tested peptide of cell surface protein integrin alpha (v) (KANTT; also: biotin label at one end) | − |
| teNqt: Tested peptide of cell surface protein integrin alpha (v) (TENQT; not fully specified) | − |
| meNkt: Tested peptide of cell surface protein integrin alpha 3 (MENKT; also: biotin label at one end) | + |
| vtNrs: Tested peptide of cell surface protein integrin beta I (VTNRS; not fully specified) | − |
| hkNqt: Tested peptide of cell surface protein ICAM 1 (HKNQT; also: biotin label, end not given here) | − |
| qkNqt: Tested peptide of cell surface protein integrin alpha 9 (QKNQT; also: biotin label at one end, end not given here) | − |
| ekNdt: Tested peptide of cell surface protein integrin alpha (v) (EKNDT; not fully specified) | − |
| heNct: Tested peptide of cell surface protein erbB-3 (HENCT; also: biotin label, end not given here) | − |

| Substance | Prostate Cancer Serum Test Result |
| --- | --- |
| trNdt: Tested peptide of cell surface protein CD66 (TRNDT; not fully specified) | − |
| daNkt: Tested peptide of cell surface protein erbB-1 (DANKT; not fully specified) | + |
| raNhs: Tested peptide of cell surface protein integrin alpha 6 (RANHS; not fully specified) | − |
| evNss: Tested peptide of cell surface protein integrin beta 6 (EVNSS; not fully specified) | − |
| ghNes: Tested peptide of cell surface protein protein-tyrosine phosphatase kappa (GHNES; also: biotin label, end not given here) | − |
| kiNat: Tested peptide of cell surface protein desmoglein 2 (KINAT; also: biotin label at one end) | − |
| skNfs: Tested peptide of cell surface protein integrin beta 3 (SKNFS; not fully specified) | − |
| perNrt: Tested peptide of cell surface protein erbB-1 (PERNRT; also: biotin label at one end, end not given here) | − |
| gtNkt: Tested peptide of cell surface protein CD40 (GTNKT; also: biotin label, end not given here) | + |
| gdNrt: Tested peptide of cell surface protein protein-tyrosine phosphatase kappa (GDNRT; also: biotin label, end not given here) | − |
| drNhs: Tested peptide of cell surface protein integrin alpha 2 (DRNHS; not fully specified) | − |
| vkNst: Tested peptide of cell surface protein E-Cadherin (VKNST; not fully specified) | + |
| dtNrs: Tested peptide of cell surface protein erbB-2 (DTNRS; not fully specified) | + |
| NhSeg: Tested peptide of cell surface protein CD44 (NHSEG; not fully specified) | + |
| tkNgt: Tested peptide of cell surface protein desmoglein 1 (TKNGT; not fully specified) | − |
| qrNit: Tested peptide of cell surface protein integrin alpha 1 (QRNIT; not fully specified) | − |
| diNss: Tested peptide of cell surface protein fgfr4 (DINSS; not fully specified) | − |
| qdNkt: Tested peptide of cell surface protein integrin alpha (v) (QDNKT; also: biotin label at one end, end not given here) | + |
| sdNst: Tested peptide of cell surface protein CD53 (SDNST; not fully specified) | − |
| kNvtNrs: Tested peptide of cell surface protein integrin beta I (KNVTNRS; also: biotin label at one end) | − |
| ekNgs: Tested peptide of cell surface protein fgfr2 (EKNGS; not fully specified) | − |
| qkNss: Tested peptide of cell surface protein integrin beta 6 (QKNSS; also: biotin label at one end, end not given here) | − |
| IrNes: Tested peptide of cell surface protein integrin alpha 5 (LRNES; not fully specified) | − |
| skNqs: Tested peptide of cell surface protein CD66 (SKNQS; not fully specified) | − |
| mNtt: Tested peptide of cell surface protein insulin-like gf receptor | − |
| esNrt: Tested peptide of cell surface protein fgfr1 (ESNRT; not fully specified) | − |
| pdNct: Tested peptide of cell surface protein erbB-4 (PDNCT; also: biotin label at one end) | − |
